In patent EP1285918A1, “C7 Ester substituted taxanes as antitumor agents” (Florida State University Research Foundation, Inc., priority 2001, dated 2003):
Where two headings read alike, the source gives them in different places.

What was measured:
[1] = tested on: VM46 Human Colon Carcinoma Xenografts; conditions: for MDS (n): days until tumor reached 1.5 g; for maximal mean group weight losses / tolerability: mouse, in vivo, iv
Protocol: (§1) Other antitumor compounds were similarly formulated. […] The dosing volume was 0.3 mL per 20 g mouse.
(§2) Female NCr-nude mice (6-8 weeks of age, implanted subcutaneously with 1 mm^3 VM46 colon carcinoma fragments in the flank) were sorted into treatment groups of six mice each. […] Dosing was initiated on Day 1. The antitumor compounds were given i.v. at an estimated maximum tolerated dose (MTD) appropriate for each agent on a qd x 1 schedule (single administration of compound). […] Taxotere was given i.v. at a dose of 70 mg/kg on a qd x 1 schedule. The vehicle was given i.v. to control mice in Group 1 in each test on Day 1 (qd x 1) schedule. Treatment groups are detailed in Table 13. The VM46 study ended on Day 64.
(§3) The results are summarized in table 14 and include mean days of survival (MDS), number of toxic deaths, number of survivors, number of complete or partial responses, and number with stable disease. The mean days of survival is the number of days after which a neoplasm reached a size of 1.5 g and the animal was euthanized. A complete response is obtained if the tumor is not palpable at the end of the study. A partial response is obtained if the tumor shrinks to a size smaller than its size on Day 1 of the study. […]

[2] = tested on: A375 Human Melanoma Xenografts; conditions: for Complete Response / Partial Response / Stable Disease / Survivors / Mean Score / MDS (n) / Toxic Deaths / survival extension compared to Group 1 controls: A375; for Complete Response / Partial Response / Stable Disease / Survivors / Mean Score / MDS (n) / Toxic Deaths: i.v. qd x 1 (mg/kg: Taxol 24, 1351 107.6, 1393 72.6, 1401 107.6, 1418 107.6, 1424 195.1, Taxotere 70); for Complete Response / Partial Response / Stable Disease / Survivors / MDS (n) / Toxic Deaths: Day 60; for Mean Score: tumor score 1 to 10, group mean; for MDS (n): 2.0 g cut-off; for survival extension compared to Group 1 controls: i.v. qd x 1 (mg/kg: Taxol 24, 1393 72.6, 1418 107.6, Taxotere 70)
Protocol: (§4) Other antitumor compounds were similarly formulated. […] The dosing volume was 0.3 ml per 20 g mouse.
Female NCr-nude mice (implanted subcutaneously with 1 mm^3 A375 melanoma in the flank) were sorted into treatment groups of six mice each, except for the Taxotere group having seven mice each. […] Dosing was initiated on Day 1. The antitumor compounds were given i.v. at an estimated maximum tolerated dose (MTD) appropriate for each agent on a qd x 1 schedule (single administration of compound). […] Taxotere was given i.v. on a qd x 1 schedule at a dose of 70 mg/kg. The vehicle was administered i.v. to control mice in Group 1 on the qd x 1 schedule. Treatment groups are detailed in Table 9. The study was terminated on Day 60.
as §3, with “Table 10” for “table 14”, “tumor” for “neoplasm”, “2.0” for “1.5”

[3] = tested on: DU 145 Human Prostate Carcinoma Xenografts; conditions: DU145; for MDS (n) / Complete Response / Partial Response / Stable Disease / Survivors / Mean Score / Toxic Deaths: i.v. qd x 1 (mg/kg: Taxol 24, 1351 107.6, 1393 72.6, 1401 107.6, 1418 107.6, 1424 195.1); for MDS (n) / Complete Response / Partial Response / Stable Disease / Survivors / Toxic Deaths: 5 mice/group, Day 91; for MDS (n): 1.5 g cut-off; for Mean Score: tumor score 1 to 10, group mean
Protocol: as §4
Male NCr-nude mice (implanted subcutaneously with 1 mm^3 DU145 prostate carcinoma fragments in the flank) were sorted into treatment groups of five mice each. […] Dosing was initiated on Day 1. The antitumor compounds were given i.v. at an estimated maximum tolerated dose (MTD) appropriate for each agent on a qd x 1 schedule (single administration of compound). […] The vehicle was administered i.v. to control mice in Group 1 on the qd x 1 schedule. The study was terminated on Day 91. Treatment groups are detailed in Table 5.
The mean days of survival is the number of days after which a neoplasm reached a size of 1.5 g and the animal was euthanized. A complete response is obtained if the tumor is not palpable at the end of the study. A partial response is obtained if the tumor shrinks to a size smaller than its size on Day 1 of the study. […]

[4] = tested on: Panc-1 Human Pancreatic Carcinoma Xenografts; conditions: for mean group weight losses / tolerability: mouse, in vivo
Protocol: as §1
as §2, with “Panc-1 pancreatic” for “VM46 colon”, “12.” for “13.”, “The” for “The VM46”, “was terminated” for “ended”, “63.” for “64.”
The mean days of survival is the number of days after which a neoplasm reached a size of 1.5 g and the animal was euthanized. A complete response is obtained if the tumor is not palpable at the end of the study. A partial response is obtained if the tumor shrinks to a size smaller than its size on Day 1 of the study.

[5] = 107.6 mg/kg i.v. qd x 1, 6 mice/group, study end Day 64
[6] = VM46, i.v. qd x 1 at estimated MTD, 6 mice/group
[7] = Panc-1, i.v. qd x 1 (mg/kg: Taxol 24, 1351 75.32, 1393 72.6, 1401 107.6, 1418 107.6, 1424 195.1), 6 mice/group
[8] = i.v. qd x 1 at estimated MTD, 6 mice/group, study end Day 63
[9] = 70 mg/kg i.v. qd x 1, 6 mice/group, study end Day 64

| Compound | Complete Response [1, 5] | Mean Score [1, 5] | Partial Response [1, 5] | Stable Disease [1, 5] | Survivors [1, 5] | Toxic Deaths [1, 5] | MDS (n) [1, 5] | maximal mean group weight losses [1] | Complete Response [2] | Partial Response [2] | Stable Disease [2] | Survivors [2] | Mean Score [2] | Complete Response [3] | Partial Response [3] | Stable Disease [3] | Survivors [3] | Mean Score [3] | Survivors [4, 8] | Toxic Deaths [4, 8] | also measured |
| --- | --- | --- | --- | --- | --- | --- | --- | --- | --- | --- | --- | --- | --- | --- | --- | --- | --- | --- | --- | --- | --- |
| CCC(=O)O[C@H]1C[C@H]2OC[C@@]2(OC(C)=O)[C@H]2[C@H](OC(=O)c3ccccc3)[C@]3(O)C[C@H](OC(=O)[C@H](O)[C@H](C=C(C)C)NC(=O)OC(C)(C)C)C(C)=C([C@@H](O)C(=O)[C@]12C)C3(C)C [Compound 1351] | 0 | 4.5 ± 1.4 | 1 | 2 | 3 | 0 | 43.7 ± 3.4 (3) days | 3-14% | 0 | 0 | 0 | 0 | 0±0 | 0 | 1 | 0 | 1 | 2.6 ± 1.5 | 4 | 0 | Toxic Deaths [1, 6]: no toxic deaths; tolerability [1]: quite well-tolerated; mean group weight losses ([2]; mouse, in vivo, iv): 20-30%; mortality rate ([3]; 1351 107.6 mg/kg i.v. qd x 1): 40%; weight loss in a number of the treated mice prior to their deaths ([3]; 1351 107.6 mg/kg i.v. qd x 1): over 20%; MDS (n) [3]: 62.6 ± 17.5 (2) days; Toxic Deaths [4, 7]: no toxic deaths; Complete Response [4, 8]: 1; Mean Score [4, 8]: 5.7 ± 1.3; Partial Response [4, 8]: 1; Stable Disease [4, 8]: 2; MDS (n) ([4]; i.v. qd x 1 at estimated MTD, 6 mice/group, study end Day 63, days until tumor reached 1.5 g): 42.5 ± 10.2 days; mean group weight losses ([4]; iv): 3-13%; tolerability ([4]; iv): well-tolerated |
| CCC(=O)O[C@H]1C[C@H]2OC[C@@]2(OC(C)=O)[C@H]2[C@H](OC(=O)c3ccccc3)[C@]3(O)C[C@H](OC(=O)[C@H](O)[C@@H](NC(=O)OC(C)(C)C)c4ccoc4)C(C)=C([C@@H](O)C(=O)[C@]12C)C3(C)C [Compound 1401] | 0 | 2.5 ± 1.3 | 1 | 0 | 1 | 1 | 46.1 ± 5.9 (4) days | under 12% | 0 | 0 | 0 | 0 | 2±0 | 1 | 0 | 0 | 1 | 3.6 ± 1.7 | 6 | 0 | Toxic Deaths [1, 6]: not more than one; tolerability [1]: Acceptable toxicity; MDS (n) [2]: 22.2 ± 1.1 (6) days; Toxic Deaths [2]: 0; MDS (n) [3]: 72.6 ± 8.7 (3) days; Toxic Deaths [3]: 1; Toxic Deaths [4, 7]: no toxic deaths; Complete Response [4, 8]: 0; Mean Score [4, 8]: 6.8 ± 0.8; Partial Response [4, 8]: 3; Stable Disease [4, 8]: 3; mean group weight losses ([4]; iv): 3-13%; tolerability ([4]; iv): well-tolerated |
| CCC(=O)O[C@H]1C[C@H]2OC[C@@]2(OC(C)=O)[C@H]2[C@H](OC(=O)c3ccccc3)[C@]3(O)C[C@H](OC(=O)[C@H](O)[C@@H](NC(=O)OC(C)(C)C)c4cccs4)C(C)=C([C@@H](O)C(=O)[C@]12C)C3(C)C [Compound 1418] | 0 | 3.5 ± 0.8 | 0 | 3 | 3 | 0 | 41.7 ± 3.4 (3) days | 3-14% | 0 | 1 | – | 2 | 4 ± 1.3 | 1 | 2 | 1 | 4 | 7.2 ± 1.2 | 6 | 0 | MDS (n) [2]: 34.5 ± 3.1 (3) days; survival extension compared to Group 1 controls [2]: 140%; Toxic Deaths [3]: 0; total response rate ([3]; i.v. qd x 1 at estimated MTD): ≥ 50%; Partial Responses ([4]; Panc-1, i.v. qd x 1 (mg/kg: 1393 72.6, 1418 107.6), 6 mice/group, Day 63): 5; Complete Response ([4]; iv, 1512 h): 0; Mean Score ([4]; iv, 1512 h): 8 ± 0.6; Partial Response ([4]; iv, 1512 h): 5; Stable Disease ([4]; iv, 1512 h): 1; mean group weight losses ([4]; iv): 3-13% |
| CC(=O)O[C@@]12CO[C@@H]1C[C@H](O)[C@@]1(C)C(=O)[C@H](O)C3=C(C)[C@@H](OC(=O)[C@H](O)[C@@H](NC(=O)OC(C)(C)C)c4ccccc4)C[C@@](O)([C@@H](OC(=O)c4ccccc4)[C@H]21)C3(C)C [docetaxel, reference compound] | – | – | – | – | – | – | – | – | 0 | 0 | 0 | 0 | 2±0 | – | – | – | – | – | – | – | Complete Response [1, 9]: 0; Mean Score [1, 9]: 2 ± 0; Partial Response [1, 9]: 0; Stable Disease [1, 9]: 0; Survivors [1, 9]: 0; Toxic Deaths [1, 9]: 0; MDS (n) [1, 9]: 45.3 ± 3.6 (6) days; MDS ([1]; VM46, i.v. qd x 1 (Taxol 24 mg/kg, Taxotere 70 mg/kg), 6 mice/group, 1.5 g cut-off, Day 64): 45.3 days; MDS (n) [2]: 21.5 ± 0.5 (7) days; Toxic Deaths [2]: 0; survival extension compared to Group 1 controls [2]: 49% |
